# Experiments:
# Na+ channel (site 2) = assay: Eurofins panel: Na+ channel (site 2) (antagonist radioligand); type: binding; conditions: compound concentration 1.0E-05 M
# NMDA = assay: Eurofins panel: NMDA (antagonist radioligand); type: binding; conditions: compound concentration 1.0E-05 M
# [1] = target: GABAA (alpha1/beta2/gamma2) Human Ion Channel, Picrotoxinin site (Homo sapiens, UniProt P14867+P18507+P47870); assay: biochemical; type: binding
# [2] = target: T1, GABAB(B1b/B2) Human GABA B GPCR (Homo sapiens, UniProt Q9UBS5); assay: GABAB(B1b/B2) Human GABA B GPCR Mass Spectrometry Binding (Antagonist Ligand) Assay, Cerep, assay 4699
# T1 construct: Eurofins (Cerep) assay 4699
# Ca2+ channel (N) = type: binding
# M1 (h) = target: T2, M1 (h) (Homo sapiens, UniProt P11229); assay: biochemical; type: binding
# T2 construct: purchased Eurofins (CNS SafetyScreen panel, contract assay) assay 91
# 5-HT1A (h) = 5-HT1A (h) (Homo sapiens, UniProt P08908); conditions: 1.0E-05 M; 5-HT1A (h) (agonist radioligand)
# [3] = target: N neuronal alpha4beta2 (h) (Homo sapiens, UniProt P17787+P43681); conditions: compound concentration 1.0E-05 M
# 5-HT3 (h) = 5-HT3 (h) (Homo sapiens, UniProt P46098); conditions: 1.0E-05 M; 5-HT3 (h) (antagonist radioligand)
# Chain of 5-HT3 (h) (P46098 24-478): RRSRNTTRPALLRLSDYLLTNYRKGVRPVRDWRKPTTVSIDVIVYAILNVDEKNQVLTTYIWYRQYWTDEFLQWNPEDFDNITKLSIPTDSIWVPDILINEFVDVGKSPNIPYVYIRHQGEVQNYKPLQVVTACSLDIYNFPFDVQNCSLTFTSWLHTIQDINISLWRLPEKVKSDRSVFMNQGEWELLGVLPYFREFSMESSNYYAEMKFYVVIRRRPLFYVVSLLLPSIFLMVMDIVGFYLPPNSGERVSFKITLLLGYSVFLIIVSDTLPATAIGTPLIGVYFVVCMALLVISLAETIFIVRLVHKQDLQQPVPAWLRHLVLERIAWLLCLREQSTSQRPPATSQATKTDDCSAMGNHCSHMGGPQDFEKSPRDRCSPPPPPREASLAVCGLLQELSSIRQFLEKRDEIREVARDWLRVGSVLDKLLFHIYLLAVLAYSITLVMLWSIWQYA
# [4] = target: norepinephrine transporter (h) (Homo sapiens, UniProt P23975); conditions: compound concentration 1.0E-05 M
# OX1 (h) = OX1 (h) (Homo sapiens, UniProt O43613); conditions: compound concentration 1.0E-05 M
# Chain of OX1 (h) (O43613 whole entry): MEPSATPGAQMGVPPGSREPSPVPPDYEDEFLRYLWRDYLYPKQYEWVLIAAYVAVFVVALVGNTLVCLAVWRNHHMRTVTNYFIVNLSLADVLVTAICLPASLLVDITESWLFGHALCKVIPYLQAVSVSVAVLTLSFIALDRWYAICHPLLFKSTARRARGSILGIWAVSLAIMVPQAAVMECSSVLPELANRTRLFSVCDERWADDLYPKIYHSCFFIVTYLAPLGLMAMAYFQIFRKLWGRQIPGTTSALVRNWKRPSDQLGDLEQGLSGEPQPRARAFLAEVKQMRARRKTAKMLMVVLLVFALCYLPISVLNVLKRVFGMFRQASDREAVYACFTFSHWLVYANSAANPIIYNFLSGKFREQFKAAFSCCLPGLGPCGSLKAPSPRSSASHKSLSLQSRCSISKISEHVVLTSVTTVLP
# A3 (h) = A3 (h) (Homo sapiens, UniProt P0DMS8); conditions: 1.0E-05 M; A3 (h) (agonist radioligand)
# acetylcholinesterase (h) = acetylcholinesterase (h) (Homo sapiens, UniProt P22303)
# Chain of acetylcholinesterase (h) (P22303 32-614): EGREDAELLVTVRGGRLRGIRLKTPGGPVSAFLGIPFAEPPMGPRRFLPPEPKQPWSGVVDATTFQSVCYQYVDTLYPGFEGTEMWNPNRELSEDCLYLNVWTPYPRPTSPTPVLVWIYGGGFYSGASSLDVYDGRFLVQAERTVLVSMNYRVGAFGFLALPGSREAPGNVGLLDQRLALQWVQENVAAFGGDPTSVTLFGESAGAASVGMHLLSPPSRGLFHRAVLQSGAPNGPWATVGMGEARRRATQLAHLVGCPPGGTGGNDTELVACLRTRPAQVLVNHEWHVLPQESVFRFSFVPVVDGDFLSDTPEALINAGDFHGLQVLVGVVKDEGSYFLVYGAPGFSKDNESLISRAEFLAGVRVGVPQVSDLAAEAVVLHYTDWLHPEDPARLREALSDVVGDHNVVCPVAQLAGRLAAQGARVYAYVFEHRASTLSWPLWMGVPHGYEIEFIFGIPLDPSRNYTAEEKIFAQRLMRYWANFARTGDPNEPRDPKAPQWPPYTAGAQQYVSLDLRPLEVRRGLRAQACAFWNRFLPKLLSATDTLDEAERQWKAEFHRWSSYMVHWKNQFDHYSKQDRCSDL
# alpha2B (h) = alpha2B (h) (Homo sapiens, UniProt P18089)
# Chain of alpha2B (h) (P18089 whole entry): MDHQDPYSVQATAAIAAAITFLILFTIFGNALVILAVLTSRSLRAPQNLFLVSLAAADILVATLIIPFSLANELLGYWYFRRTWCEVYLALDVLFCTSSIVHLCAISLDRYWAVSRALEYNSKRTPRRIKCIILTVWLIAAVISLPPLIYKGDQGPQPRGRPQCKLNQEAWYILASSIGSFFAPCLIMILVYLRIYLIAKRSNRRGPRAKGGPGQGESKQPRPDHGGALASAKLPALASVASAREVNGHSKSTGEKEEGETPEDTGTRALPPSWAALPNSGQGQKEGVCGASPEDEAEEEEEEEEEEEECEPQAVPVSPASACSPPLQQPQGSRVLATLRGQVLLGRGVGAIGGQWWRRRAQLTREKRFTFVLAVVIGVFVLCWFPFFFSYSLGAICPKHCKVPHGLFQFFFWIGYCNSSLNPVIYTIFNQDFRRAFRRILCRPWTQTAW
# [5] = target: human monoamine oxidase-B (MAO-B) (Homo sapiens, UniProt P27338); assay: biochemical
# Chain of human monoamine oxidase-B (MAO-B) (P27338 whole entry): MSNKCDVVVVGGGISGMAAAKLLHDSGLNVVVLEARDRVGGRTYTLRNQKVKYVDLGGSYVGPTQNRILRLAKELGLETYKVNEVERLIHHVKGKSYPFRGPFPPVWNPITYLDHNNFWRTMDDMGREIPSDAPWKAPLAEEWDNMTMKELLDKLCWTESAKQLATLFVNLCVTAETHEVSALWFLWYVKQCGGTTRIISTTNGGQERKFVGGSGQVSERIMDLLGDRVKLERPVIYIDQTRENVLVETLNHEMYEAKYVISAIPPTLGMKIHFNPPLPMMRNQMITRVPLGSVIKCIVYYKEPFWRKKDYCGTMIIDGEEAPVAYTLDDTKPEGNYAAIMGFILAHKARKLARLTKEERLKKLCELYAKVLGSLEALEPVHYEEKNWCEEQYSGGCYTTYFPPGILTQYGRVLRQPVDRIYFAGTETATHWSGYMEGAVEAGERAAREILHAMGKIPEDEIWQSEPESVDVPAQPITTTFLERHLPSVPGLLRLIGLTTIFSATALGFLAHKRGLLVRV
# CB1 (h) = CB1 (h) (Homo sapiens, UniProt P21554); assay: biochemical
# Chain of CB1 (h) (P21554 whole entry): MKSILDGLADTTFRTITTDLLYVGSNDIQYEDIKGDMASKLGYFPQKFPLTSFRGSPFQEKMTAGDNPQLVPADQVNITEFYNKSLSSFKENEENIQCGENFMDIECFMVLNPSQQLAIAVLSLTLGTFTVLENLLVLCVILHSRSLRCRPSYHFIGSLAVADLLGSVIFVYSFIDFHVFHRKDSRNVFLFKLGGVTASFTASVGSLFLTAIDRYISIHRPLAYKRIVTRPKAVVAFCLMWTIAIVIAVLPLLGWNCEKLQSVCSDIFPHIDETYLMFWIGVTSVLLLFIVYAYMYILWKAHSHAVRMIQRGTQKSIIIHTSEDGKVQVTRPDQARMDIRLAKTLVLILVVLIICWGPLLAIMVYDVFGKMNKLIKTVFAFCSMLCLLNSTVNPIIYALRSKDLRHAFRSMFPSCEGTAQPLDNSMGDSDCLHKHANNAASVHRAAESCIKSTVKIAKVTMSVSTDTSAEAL
# ETA (h) = ETA (h) (Homo sapiens, UniProt P25101); assay: biochemical
# Chain of ETA (h) (P25101 21-427): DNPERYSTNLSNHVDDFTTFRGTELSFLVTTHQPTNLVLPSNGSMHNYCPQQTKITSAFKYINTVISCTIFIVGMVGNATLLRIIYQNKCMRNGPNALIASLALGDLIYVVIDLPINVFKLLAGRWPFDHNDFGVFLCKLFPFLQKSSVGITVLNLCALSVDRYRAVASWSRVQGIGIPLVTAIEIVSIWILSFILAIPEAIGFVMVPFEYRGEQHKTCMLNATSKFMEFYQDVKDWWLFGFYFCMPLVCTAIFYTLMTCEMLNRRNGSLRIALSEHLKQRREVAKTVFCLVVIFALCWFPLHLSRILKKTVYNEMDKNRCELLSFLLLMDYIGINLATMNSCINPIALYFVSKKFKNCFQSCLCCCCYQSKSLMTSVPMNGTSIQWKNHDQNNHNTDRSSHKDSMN
# OX2 (h) = target: T3, OX2 (h) (Homo sapiens, UniProt O43614); assay: Eurofins panel: OX2 (h) (agonist radioligand); conditions: compound concentration 1.0E-05 M
# T3 sequence (O43614 1-444): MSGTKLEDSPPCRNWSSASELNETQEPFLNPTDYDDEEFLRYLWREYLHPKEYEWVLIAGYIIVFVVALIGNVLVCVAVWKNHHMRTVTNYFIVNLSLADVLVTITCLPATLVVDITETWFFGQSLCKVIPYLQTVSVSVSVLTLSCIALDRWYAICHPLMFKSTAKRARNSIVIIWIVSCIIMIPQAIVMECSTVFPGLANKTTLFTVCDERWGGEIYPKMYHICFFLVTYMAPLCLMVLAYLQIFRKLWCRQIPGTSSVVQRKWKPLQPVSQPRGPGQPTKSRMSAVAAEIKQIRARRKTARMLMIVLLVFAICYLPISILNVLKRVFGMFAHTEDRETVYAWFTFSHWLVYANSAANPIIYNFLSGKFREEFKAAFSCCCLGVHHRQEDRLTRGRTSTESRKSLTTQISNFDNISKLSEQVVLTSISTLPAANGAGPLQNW
# mGluR5 (h) = mGluR5 (h) (Homo sapiens, UniProt P41594); assay: Eurofins panel: mGluR5 (h) (agonist radioligand); conditions: 1.0E-05 M; mGluR5 (h) (agonist radioligand)
# mu (MOP) (h) = mu (MOP) (h) (Homo sapiens, UniProt P35372); assay: Eurofins panel: mu (MOP) (h) (agonist radioligand); conditions: compound concentration 1.0E-05 M
# Chain of mu (MOP) (h) (P35372 whole entry): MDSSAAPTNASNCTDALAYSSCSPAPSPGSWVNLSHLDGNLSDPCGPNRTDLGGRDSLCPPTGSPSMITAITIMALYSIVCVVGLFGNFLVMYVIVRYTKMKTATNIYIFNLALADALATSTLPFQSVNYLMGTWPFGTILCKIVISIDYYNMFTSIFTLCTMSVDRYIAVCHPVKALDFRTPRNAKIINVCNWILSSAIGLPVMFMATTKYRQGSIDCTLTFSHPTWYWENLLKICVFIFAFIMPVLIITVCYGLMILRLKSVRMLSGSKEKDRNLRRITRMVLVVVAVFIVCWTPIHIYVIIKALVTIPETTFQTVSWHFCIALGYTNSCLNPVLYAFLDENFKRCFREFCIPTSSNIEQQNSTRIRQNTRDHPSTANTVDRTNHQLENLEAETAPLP
# D3 (h) = D3 (h) (Homo sapiens, UniProt P35462); assay: D3 (h) (antagonist radioligand), Eurofins assay 48
# Chain of D3 (h) (P35462 whole entry): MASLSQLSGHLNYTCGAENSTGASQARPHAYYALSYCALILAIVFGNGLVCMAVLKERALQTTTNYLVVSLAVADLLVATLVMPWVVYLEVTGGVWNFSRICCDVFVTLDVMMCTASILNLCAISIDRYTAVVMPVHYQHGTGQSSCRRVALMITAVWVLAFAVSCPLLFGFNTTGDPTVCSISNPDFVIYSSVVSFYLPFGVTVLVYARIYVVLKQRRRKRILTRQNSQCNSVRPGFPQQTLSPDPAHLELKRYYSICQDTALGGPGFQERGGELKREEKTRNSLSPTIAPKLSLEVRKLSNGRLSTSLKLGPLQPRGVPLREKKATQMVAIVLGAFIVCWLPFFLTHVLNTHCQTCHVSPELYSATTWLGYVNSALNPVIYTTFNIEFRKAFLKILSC
# beta2 (h) = beta2 (h) (Homo sapiens, UniProt P07550); assay: Eurofins panel: beta2 (h) (antagonist radioligand); conditions: 1.0E-05 M
# alpha1A (h) = target: T4, alpha1A (h) (Homo sapiens, UniProt P35348); assay: Eurofins panel: alpha1A (h) (antagonist radioligand); conditions: 1.0E-05 M; alpha1A (h) (antagonist radioligand)
# T4 sequence (P35348 1-466): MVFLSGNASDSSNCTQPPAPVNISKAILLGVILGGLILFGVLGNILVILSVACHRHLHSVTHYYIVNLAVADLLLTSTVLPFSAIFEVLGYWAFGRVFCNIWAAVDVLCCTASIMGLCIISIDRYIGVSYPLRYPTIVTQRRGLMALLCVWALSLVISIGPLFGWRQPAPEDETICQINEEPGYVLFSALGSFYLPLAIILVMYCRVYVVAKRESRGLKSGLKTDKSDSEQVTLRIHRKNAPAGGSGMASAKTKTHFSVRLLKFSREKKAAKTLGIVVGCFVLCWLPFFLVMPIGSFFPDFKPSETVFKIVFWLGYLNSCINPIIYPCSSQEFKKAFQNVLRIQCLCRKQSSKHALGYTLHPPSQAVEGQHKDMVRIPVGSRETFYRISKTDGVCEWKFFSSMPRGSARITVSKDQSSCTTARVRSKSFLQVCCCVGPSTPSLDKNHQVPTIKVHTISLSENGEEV
# MT1 (ML1A) (h) = MT1 (ML1A) (h) (Homo sapiens, UniProt P48039); assay: MT1 (ML1A) (h) (agonist radioligand), Eurofins assay 1538
# Chain of MT1 (ML1A) (h) (P48039 whole entry): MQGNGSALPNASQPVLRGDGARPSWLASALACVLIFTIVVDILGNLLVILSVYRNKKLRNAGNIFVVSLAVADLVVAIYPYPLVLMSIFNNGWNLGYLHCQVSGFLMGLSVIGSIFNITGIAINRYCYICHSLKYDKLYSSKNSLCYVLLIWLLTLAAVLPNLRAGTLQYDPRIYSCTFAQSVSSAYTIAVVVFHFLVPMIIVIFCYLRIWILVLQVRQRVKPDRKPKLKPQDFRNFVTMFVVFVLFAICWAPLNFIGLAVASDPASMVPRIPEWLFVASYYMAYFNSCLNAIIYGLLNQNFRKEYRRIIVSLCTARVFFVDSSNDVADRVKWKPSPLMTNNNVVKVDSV
# N neuronal alpha7 (h) = N neuronal alpha7 (h) (Homo sapiens, UniProt P36544); assay: Eurofins panel: N neuronal alpha7 (h) (antagonist radioligand); conditions: compound concentration 1.0E-05 M
# Chain of N neuronal alpha7 (h) (P36544 23-502): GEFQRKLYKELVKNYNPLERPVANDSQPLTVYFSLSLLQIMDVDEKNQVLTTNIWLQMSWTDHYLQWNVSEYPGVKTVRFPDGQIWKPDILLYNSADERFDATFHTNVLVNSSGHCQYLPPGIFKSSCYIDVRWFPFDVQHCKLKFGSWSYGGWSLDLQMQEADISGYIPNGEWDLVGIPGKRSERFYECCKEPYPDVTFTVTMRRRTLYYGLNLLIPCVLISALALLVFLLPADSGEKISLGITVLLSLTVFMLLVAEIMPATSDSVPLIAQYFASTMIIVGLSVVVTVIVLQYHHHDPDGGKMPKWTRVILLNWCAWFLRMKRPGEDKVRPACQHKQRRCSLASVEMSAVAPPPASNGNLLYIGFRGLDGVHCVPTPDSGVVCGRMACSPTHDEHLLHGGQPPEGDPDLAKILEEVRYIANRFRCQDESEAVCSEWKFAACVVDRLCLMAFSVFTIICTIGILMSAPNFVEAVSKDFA
smiles,measurement,setting,value
"Fc1nc(N2CCOCC2)ccc1-c1cc2ccccc2[nH]1 [Compound 75, 4-(6-Fluoro-5-(1H-indol-2-yl)pyridin-2-yl)morpholine]","% Inhibition, Specific binding",Na+ channel (site 2),-1.89E+01%
same,"% Inhibition, Specific binding",NMDA,-1.90E-01%
same,inhibition at 10 µM,[1],8.53%
same,inhibition at 10 µM,[2],18.1%
same,"% Inhibition, Specific binding",Ca2+ channel (N),-3.62E+00%
same,inhibition at 10 µM,M1 (h),-8.86%
same,"% Inhibition, Specific binding",5-HT1A (h),11.4159%
same,"% Inhibition, Specific binding",[3],-8.72E+00%
same,"% Inhibition, Specific binding",5-HT3 (h),0.4312%
same,"% Inhibition, Specific binding",[4],-1.11E+01%
same,"% Inhibition, Specific binding",OX1 (h),6.092%
same,"% Inhibition, Specific binding",A3 (h),5.821%
same,"% Inhibition, Enzymatic activity",acetylcholinesterase (h),1.77%
same,"% Inhibition, Specific binding",alpha2B (h),2.179%
same,inhibition at 10 µM,[5],61%
same,inhibition at 10 µM,CB1 (h),-0.0362%
same,inhibition at 10 µM,ETA (h),4.29%
same,"% Inhibition, Specific binding",OX2 (h),0.786%
same,"% Inhibition, Specific binding",mGluR5 (h),-1.20E+01%
same,"% Inhibition, Specific binding",mu (MOP) (h),-1.17E+00%
same,inhibition at 10 µM,D3 (h),-5.9%
same,"% Inhibition, Specific binding",beta2 (h),4.9424%
same,"% Inhibition, Specific binding",alpha1A (h),3.065%
same,inhibition at 10 µM,MT1 (ML1A) (h),13%
same,"% Inhibition, Specific binding",N neuronal alpha7 (h),-7.00E+00%

# — PMC11956013, “Structure–Activity Relationships and Evaluation of 2-(Heteroaryl-cycloalkyl)-1H-indoles as Tauopathy Positron Emission Tomography Radiotracers” (Journal of Medicinal Chemistry, 2025)
